Data taken from the supplement of paper PMC7287046.

Legend:
Settings in all cases: exposure time: 72 h
U87 [1] = assay: Chou-Talalay combination index (dimensionless); higher = less synergy (more antagonism)
Procedure: (§1)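 Glioma cell lines were treated for 72 h with a 6x6 matrix of two drugs, each in twofold dilutions with the top dose at the single-drug IC50. Viability was read by CellTiter-Glo and normalised to DMSO controls, in triplicate. The Chou-Talalay combination index was computed by the median effect principle; CI < 0.8 means synergy.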

SF268 [2] = assay: as above
Procedure: as §1

U118 [3] = assay: as above
Procedure: as §1

KNS42 = assay: as above
Procedure: as §1

U251 [4] = assay: as above
Procedure: as §1

SNB75 [5] = assay: as above
Procedure: as §1

T98 = assay: as above
Procedure: as §1

AM38 = assay: as above
Procedure: as §1

SF539 [6] = assay: as above
Procedure: as §1

U87 [7] = assay: Bliss synergy score (Combenefit); higher = more synergy; extreme values may be limits of the assay
Procedure: (§2)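 The same 6x6 dose matrices of drug pairs on glioma cell lines (72 h, CellTiter-Glo viability normalised to DMSO, triplicate) were scored with Combenefit. The Loewe, Bliss and HSA synergy scores are given; paper thresholds are Loewe 7.8 and Bliss 2.5.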

SF268 [8] = assay: as above
Procedure: as §2

U118 [9] = assay: as above
Procedure: as §2

U251 [10] = assay: as above
Procedure: as §2

SNB75 [11] = assay: as above
Procedure: as §2

AM-38 [12] = assay: as above
Procedure: as §2

T98G [13] = assay: as above
Procedure: as §2

KNS-42 [14] = assay: as above
Procedure: as §2

SF539 [15] = assay: as above
Procedure: as §2

U87 [16] = assay: HSA synergy score (Combenefit); higher = more synergy
Procedure: as §2

SF268 [17] = assay: as above
Procedure: as §2

U118 [18] = assay: as above
Procedure: as §2

U251 [19] = assay: as above
Procedure: as §2

SNB75 [20] = assay: as above
Procedure: as §2

AM-38 [21] = assay: as above
Procedure: as §2

T98G [22] = assay: as above
Procedure: as §2

KNS-42 [23] = assay: as above
Procedure: as §2

SF539 [24] = assay: as above
Procedure: as §2

U87 [25] = assay: Loewe synergy score (Combenefit); higher = more synergy; extreme values may be limits of the assay
Procedure: as §2

SF268 [26] = assay: as above
Procedure: as §2

U118 [27] = assay: as above
Procedure: as §2

U251 [28] = assay: as above
Procedure: as §2

SNB75 [29] = assay: as above
Procedure: as §2

AM-38 [30] = assay: as above
Procedure: as §2

T98G [31] = assay: as above
Procedure: as §2

KNS-42 [32] = assay: as above
Procedure: as §2

SF539 [33] = assay: as above
Procedure: as §2

`C[C@@H](Oc1cc(-c2cnn(C3CCNCC3)c2)cnc1N)c1c(Cl)ccc(F)c1Cl` [Crizotinib] + CCOc1nc(NC(=O)Cc2cc(OC)ccc2OC)cc(N)c1C#N [JNK inhibitor VIII] showed a Chou-Talalay combination index (U87 [1]) of 2.67, a Chou-Talalay combination index (SF268 [2]) of 0.637 and a Chou-Talalay combination index (U118 [3]) of 0.732. It also gave a Chou-Talalay combination index (KNS42) of 0.929, a Chou-Talalay combination index (U251 [4]) of 0.838 and a Chou-Talalay combination index (SNB75 [5]) of 0.972. The Chou-Talalay combination index (T98) was 0.945, the Chou-Talalay combination index (AM38) was 1.13 and the Chou-Talalay combination index (SF539 [6]) was 0.458. The Bliss synergy score (U87 [7]) was 0, the Bliss synergy score (SF268 [8]) was 2.4 and the Bliss synergy score (U118 [9]) was 5.36. The Bliss synergy score (U251 [10]) was 4.44, the Bliss synergy score (SNB75 [11]) was 0 and the Bliss synergy score (AM-38 [12]) was 0. It also gave a Bliss synergy score (T98G [13]) of 0.922, a Bliss synergy score (KNS-42 [14]) of 1.72 and a Bliss synergy score (SF539 [15]) of 5.02. It also gave an HSA synergy score (U87 [16]) of 0, an HSA synergy score (SF268 [17]) of 6.62 and an HSA synergy score (U118 [18]) of 9.81. It also gave an HSA synergy score (U251 [19]) of 6.52, an HSA synergy score (SNB75 [20]) of 10.4 and an HSA synergy score (AM-38 [21]) of 1.09. The HSA synergy score (T98G [22]) was 2.65, the HSA synergy score (KNS-42 [23]) was 5.67 and the HSA synergy score (SF539 [24]) was 13.6. The Loewe synergy score (U87 [25]) was 0, the Loewe synergy score (SF268 [26]) was 1.66 and the Loewe synergy score (U118 [27]) was 4.11. The Loewe synergy score (U251 [28]) was 6.52, the Loewe synergy score (SNB75 [29]) was 4.28 and the Loewe synergy score (AM-38 [30]) was 0.954. The Loewe synergy score (T98G [31]) was 2.42, the Loewe synergy score (KNS-42 [32]) was 2.75 and the Loewe synergy score (SF539 [33]) was 2.32.
`C[C@@H](Oc1cc(-c2cnn(C3CCNCC3)c2)cnc1N)c1c(Cl)ccc(F)c1Cl` [Crizotinib] + C=CCc1cccc(/C=N/NC(=O)CN2CCN(Cc3ccccc3)CC2)c1O [PAC-1] showed a Chou-Talalay combination index (U87 [1]) of 0.154, a Chou-Talalay combination index (SF268 [2]) of 1.04 and a Chou-Talalay combination index (U118 [3]) of 0.584. For the same molecule, the Chou-Talalay combination index (KNS42) was 0.421, the Chou-Talalay combination index (U251 [4]) was 0.821 and the Chou-Talalay combination index (SNB75 [5]) was 0.951. It also gave a Chou-Talalay combination index (T98) of 0.476, a Chou-Talalay combination index (AM38) of 0.937 and a Chou-Talalay combination index (SF539 [6]) of 0.877. The Bliss synergy score (U87 [7]) was 4.47, the Bliss synergy score (SF268 [8]) was 0 and the Bliss synergy score (U118 [9]) was 0.539. For the same molecule, the Bliss synergy score (U251 [10]) was 0.0857, the Bliss synergy score (SNB75 [11]) was 0.417 and the Bliss synergy score (AM-38 [12]) was 0.773. It also gave a Bliss synergy score (T98G [13]) of 2.4, a Bliss synergy score (KNS-42 [14]) of 7.19 and a Bliss synergy score (SF539 [15]) of 1.39. The HSA synergy score (U87 [16]) was 4.47, the HSA synergy score (SF268 [17]) was 1.21 and the HSA synergy score (U118 [18]) was 2.29. It also gave an HSA synergy score (U251 [19]) of 1.43, an HSA synergy score (SNB75 [20]) of 5.78 and an HSA synergy score (AM-38 [21]) of 0.987. It also gave an HSA synergy score (T98G [22]) of 2.4, an HSA synergy score (KNS-42 [23]) of 16.5 and an HSA synergy score (SF539 [24]) of 3.88. It also gave a Loewe synergy score (U87 [25]) of 4.47, a Loewe synergy score (SF268 [26]) of 0.692 and a Loewe synergy score (U118 [27]) of 0.609. The Loewe synergy score (U251 [28]) was 1.22, the Loewe synergy score (SNB75 [29]) was 0.297 and the Loewe synergy score (AM-38 [30]) was 0.141. It also gave a Loewe synergy score (T98G [31]) of 2.4, a Loewe synergy score (KNS-42 [32]) of 15.3 and a Loewe synergy score (SF539 [33]) of 0.62.
In the case of `O=c1[nH]c2ccccc2n1C1CCN(Cc2ccc(-c3[nH]c4cc5ncnc5cc4nc3-c3ccccc3)cc2)CC1` [Akt inhibitor VIII] + N#CC(c1ccnc(NCCc2cccnc2)n1)c1nc2ccccc2s1 [AS601245], the Chou-Talalay combination index (U87 [1]) is reported as 0.0154, the Chou-Talalay combination index (SF268 [2]) is reported as 0.805 and the Chou-Talalay combination index (U118 [3]) is reported as 0.264. It also gave a Chou-Talalay combination index (KNS42) of 0.979, a Chou-Talalay combination index (U251 [4]) of 0.641 and a Chou-Talalay combination index (SNB75 [5]) of 0.89. The Chou-Talalay combination index (T98) was 0.031, the Chou-Talalay combination index (AM38) was 0.584 and the Chou-Talalay combination index (SF539 [6]) was 0.966. For the same molecule, the Bliss synergy score (U87 [7]) was 10.4, the Bliss synergy score (SF268 [8]) was 1.39 and the Bliss synergy score (U118 [9]) was 5.46. For the same molecule, the Bliss synergy score (U251 [10]) was 3.96, the Bliss synergy score (SNB75 [11]) was 1.31 and the Bliss synergy score (AM-38 [12]) was 8.16. For the same molecule, the Bliss synergy score (T98G [13]) was 9.74, the Bliss synergy score (KNS-42 [14]) was 0.964 and the Bliss synergy score (SF539 [15]) was 0.0617. It also gave an HSA synergy score (U87 [16]) of 12.3, an HSA synergy score (SF268 [17]) of 8.59 and an HSA synergy score (U118 [18]) of 12.4. It also gave an HSA synergy score (U251 [19]) of 3.96, an HSA synergy score (SNB75 [20]) of 5.96 and an HSA synergy score (AM-38 [21]) of 14. It also gave an HSA synergy score (T98G [22]) of 17.9, an HSA synergy score (KNS-42 [23]) of 3.65 and an HSA synergy score (SF539 [24]) of 0.651. It also gave a Loewe synergy score (U87 [25]) of 6.85, a Loewe synergy score (SF268 [26]) of 0.94 and a Loewe synergy score (U118 [27]) of 7.71. For the same molecule, the Loewe synergy score (U251 [28]) was 3.96, the Loewe synergy score (SNB75 [29]) was 0.62 and the Loewe synergy score (AM-38 [30]) was 11.2. It also gave a Loewe synergy score (T98G [31]) of 9.66, a Loewe synergy score (KNS-42 [32]) of 1.66 and a Loewe synergy score (SF539 [33]) of 0.638.
Work on `CO[C@H]1C[C@@H]2CC[C@@H](C)[C@@](O)(O2)C(=O)C(=O)N2CCCC[C@H]2C(=O)O[C@H]([C@H](C)C[C@@H]2CC[C@@H](O)[C@H](OC)C2)CC(=O)[C@H](C)/C=C(\C)[C@@H](O)[C@@H](OC)C(=O)[C@H](C)C[C@H](C)/C=C/C=C/C=C/1C` [Rapamycin] + Cc1cc([C@@H](C)Nc2ccccc2C(=O)O)c2nc(N3CCOCC3)cc(=O)n2c1 [AZD6482] yielded a Chou-Talalay combination index (U87 [1]) of 0.974, a Chou-Talalay combination index (SF268 [2]) of 1.02 and a Chou-Talalay combination index (U118 [3]) of 1.16. The Chou-Talalay combination index (KNS42) was 0.912, the Chou-Talalay combination index (U251 [4]) was 0.927 and the Chou-Talalay combination index (SNB75 [5]) was 0.75. The Chou-Talalay combination index (T98) was 0.924, the Chou-Talalay combination index (AM38) was 0.643 and the Chou-Talalay combination index (SF539 [6]) was 1.05. For the same molecule, the Bliss synergy score (U87 [7]) was 0, the Bliss synergy score (SF268 [8]) was 0.00824 and the Bliss synergy score (U118 [9]) was 0. The Bliss synergy score (U251 [10]) was 1.43, the Bliss synergy score (SNB75 [11]) was 3.78 and the Bliss synergy score (AM-38 [12]) was 1.1. It also gave a Bliss synergy score (T98G [13]) of 0.59, a Bliss synergy score (KNS-42 [14]) of 1.42 and a Bliss synergy score (SF539 [15]) of 0. It also gave an HSA synergy score (U87 [16]) of 0, an HSA synergy score (SF268 [17]) of 3.85 and an HSA synergy score (U118 [18]) of 3.28. It also gave an HSA synergy score (U251 [19]) of 1.43, an HSA synergy score (SNB75 [20]) of 25.2 and an HSA synergy score (AM-38 [21]) of 12.4. It also gave an HSA synergy score (T98G [22]) of 14.4, an HSA synergy score (KNS-42 [23]) of 2.6 and an HSA synergy score (SF539 [24]) of 6.85. For the same molecule, the Loewe synergy score (U87 [25]) was 0, the Loewe synergy score (SF268 [26]) was 3.35 and the Loewe synergy score (U118 [27]) was 2.56. The Loewe synergy score (U251 [28]) was 1.43, the Loewe synergy score (SNB75 [29]) was 21.8 and the Loewe synergy score (AM-38 [30]) was 9.55. The Loewe synergy score (T98G [31]) was 12, the Loewe synergy score (KNS-42 [32]) was 2.6 and the Loewe synergy score (SF539 [33]) was 5.95.
